These results are taken from publication PMC10449877, “Structural basis of peptidoglycan synthesis by E. coli RodA-PBP2 complex” (Nature Communications, 2023).

The target in experiment [1] is T1, E. coli RodA-PBP2 fusion (PBP2 TP domain) (Escherichia coli, UniProt P0AD65).
T1 construct: gene mrdA; with Peptidoglycan glycosyltransferase MrdB
T1 sequence (P0AD65 1-633): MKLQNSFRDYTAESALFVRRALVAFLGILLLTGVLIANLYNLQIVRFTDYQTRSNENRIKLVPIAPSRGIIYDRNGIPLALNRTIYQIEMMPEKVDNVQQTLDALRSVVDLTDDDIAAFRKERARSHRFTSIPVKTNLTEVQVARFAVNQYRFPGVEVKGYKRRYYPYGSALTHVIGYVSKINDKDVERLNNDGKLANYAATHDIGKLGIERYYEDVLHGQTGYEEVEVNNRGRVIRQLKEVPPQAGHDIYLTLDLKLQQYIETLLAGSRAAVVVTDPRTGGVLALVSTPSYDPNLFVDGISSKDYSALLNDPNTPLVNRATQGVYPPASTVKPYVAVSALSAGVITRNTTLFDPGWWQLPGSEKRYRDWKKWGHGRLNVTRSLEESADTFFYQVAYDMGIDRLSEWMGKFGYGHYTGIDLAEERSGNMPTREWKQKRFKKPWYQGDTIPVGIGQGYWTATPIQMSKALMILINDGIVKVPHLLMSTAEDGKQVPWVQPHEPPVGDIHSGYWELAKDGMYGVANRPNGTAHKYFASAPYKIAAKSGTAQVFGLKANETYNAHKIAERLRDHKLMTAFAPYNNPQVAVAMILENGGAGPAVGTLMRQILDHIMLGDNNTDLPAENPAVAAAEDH
T1 sequence (P0ABG7 1-370 partner): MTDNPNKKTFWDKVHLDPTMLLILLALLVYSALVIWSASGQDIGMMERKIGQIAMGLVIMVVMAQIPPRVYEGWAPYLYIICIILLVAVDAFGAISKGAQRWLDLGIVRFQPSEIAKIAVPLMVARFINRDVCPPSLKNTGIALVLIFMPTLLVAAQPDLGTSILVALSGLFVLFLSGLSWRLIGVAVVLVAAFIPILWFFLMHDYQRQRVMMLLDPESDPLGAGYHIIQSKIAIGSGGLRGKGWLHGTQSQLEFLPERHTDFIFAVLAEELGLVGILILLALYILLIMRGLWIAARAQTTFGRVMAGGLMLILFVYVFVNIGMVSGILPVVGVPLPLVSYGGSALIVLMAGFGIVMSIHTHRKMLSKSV
The experiment in a line: fluorescent bocillin labelling, SDS-PAGE. Format: binding. The note with it: covalent; TP active site of PBP2; labelled compound; 15 min.

The target of another experiment is T2, E. coli PBP2 (Escherichia coli str. K-12 substr. …, UniProt P0AD65 1-633).
T2 construct: K-12 substr; MG1655, UniProt P0AD65; residues 10-343, 401-430, 457-540 and 569-612 built in the map; PBP2 Gln99 is residue 476 in the fusion; the poly-histidine tag of the fusion is written on m1; also called transpeptidase (TP); source: E. coli BL21(DE3) pLysS, purified (Ni-NTA, SEC), reconstituted in POPG / MSP1E3D1 nanodiscs
T2 sequence (looked up): T1 sequence (P0AD65 1-633)
The experiment in a line: cryo-EM structure; single-particle cryo-EM of the RodA-PBP2 fusion (one chain, TSGSGSGS linker) in POPG / MSP1E3D1 nanodiscs; 20 mM HEPES pH 7, 150 mM NaCl, 1 mM TCEP; 0.66 mg/ml (5.9 uM). Particulars: both partners purified.

With `Cc1cc(C)n2c1C=C1C=CC(CCC(=O)Nc3ccc(OCC(=O)N[C@@H]4C(=O)N5[C@@H]4SC(C)(C)[C@@H]5C(=O)O)cc3)=[N+]1[B-]2(F)F` [bocillin], in experiment [1], the “fluorescent bocillin labelling, SDS-PAGE” value is recorded as “The TP domain binds (and is covalently modified by) a fluorescent penicillin mimic bocillin”.

B1: E. coli RodA (enzyme, UniProt P0ABG7 1-370, looked up)
chain: T1 sequence (P0ABG7 1-370 partner)
notes: RodA, Escherichia coli str; K-12 substr; MG1655; UniProt ID printed as '0ABG7'; residues 9-93 and 109-364 built in the map; They are written as two molecules for the pair row; No TEV cleavage is described; also called SEDS glycosyltransferase (GT); RodA part of the RodA-PBP2 fusion; source: E. coli BL21(DE3) pLysS, purified (Ni-NTA, SEC), reconstituted in POPG / MSP1E3D1 nanodiscs
Regarding B1, the binding result in the experiment with E. coli PBP2 is given as “binds”.
